Laboratory results taken from patent publication US4695545A, “Culture and process for producing A41030 antibiotics” (Eli Lilly and Company, priority 1984, dated 1987).
Values after ≈ are worked out from the molar mass of the structure shown.

Experiments:
[1] = tested on: Bacteroides vulgatis; assay: MIC anaerobic bacteria, agar-dilution; type: cell-based; conditions: Bacteroides vulgatis 1211
[2] = tested on: Bacteroides corrodens; assay: MIC anaerobic bacteria, agar-dilution; type: cell-based; conditions: Bacteroides corrodens 1874
[3] = tested on: Peptococcus prevoti; assay: MIC anaerobic bacteria, agar-dilution; type: cell-based; conditions: Peptococcus prevoti 1281
[4] = tested on: Haemophilus influenzae; assay: MIC aerobic bacteria, standard agar-dilution assay; type: cell-based
[5] = tested on: Peptostreptococcus anaerobius; assay: MIC anaerobic bacteria, agar-dilution; type: cell-based; conditions: Peptostreptococcus anaerobius 1428
[6] = tested on: Bacteroides thetaiotaomicron; assay: MIC anaerobic bacteria, agar-dilution; type: cell-based; conditions: Bacteroides thetaiotaomicron 1438
[7] = tested on: Streptococcus pneumoniae; assay: MIC aerobic bacteria, standard agar-dilution assay; type: cell-based; conditions: Streptococcus pneumoniae Park I, 24 hours
[8] = tested on: Propionibacterium acnes; assay: MIC anaerobic bacteria, agar-dilution; type: cell-based; conditions: Propionibacterium acnes 79; agar-dilution (Table 9)
[9] = tested on: Clostridium septicum; assay: MIC anaerobic bacteria, agar-dilution; type: cell-based; conditions: Clostridium septicum 1128
[10] = tested on: Fusobacterium symbiosum; assay: MIC anaerobic bacteria, agar-dilution; type: cell-based; conditions: Fusobacterium symbiosum 1470
[11] = tested on: Streptococcus sp. Group D; assay: MIC aerobic bacteria, standard agar-dilution assay; type: cell-based
[12] = tested on: Staphylococcus epidermidis; assay: MIC aerobic bacteria, standard agar-dilution assay; type: cell-based
[13] = tested on: Clostridium difficile; assay: MIC against Clostridium difficile strains, agar-dilution; type: cell-based
Source text: The A41030 antibiotic factors A, B, C, D, E, F, and G, are also active against a number of strains of Clostridium difficile, as determined by the agardilution method.

[14] = Solubility in solvents; type: physicochemical; conditions: qualitative
Source text: As many as seven antibiotic factors are recovered from the fermentation and are obtained as a mixture, the A41030 complex. It will be recognized that the ratio of the factors in the A41030 complex will vary, depending upon the fermentation conditions used. The individual factors A, B, C, D, E, F, and G are separated and isolated as individual compounds, as hereinafter described.

[15] = tested on: Bacteroides fragilis; assay: MIC anaerobic bacteria, agar-dilution; type: cell-based
[16] = tested on: Clostridium difficile; assay: MIC anaerobic bacteria, agar-dilution; type: cell-based; conditions: Clostridium difficile 2994; agar-dilution (Table 9)
[17] = tested on: Streptococcus pyogenes; assay: MIC aerobic bacteria, standard agar-dilution assay; type: cell-based; conditions: Streptococcus pyogenes C203, 24 hours
[18] = tested on: Fusobacterium necrophorum; assay: MIC anaerobic bacteria, agar-dilution; type: cell-based; conditions: Fusobacterium necrophorum 6054A
[19] = tested on: Bacteroides melaninogenicus; assay: MIC anaerobic bacteria, agar-dilution; type: cell-based; conditions: Bacteroides melaninogenicus 2736
[20] = tested on: Peptostreptococcus intermedius; assay: MIC anaerobic bacteria, agar-dilution; type: cell-based; conditions: Peptostreptococcus intermedius 1264
[21] = tested on: Peptococcus asaccharolyticus; assay: MIC anaerobic bacteria, agar-dilution; type: cell-based; conditions: Peptococcus asaccharolyticus 1302
[22] = tested on: Clostridium perfringens; type: cell-based; conditions: Clostridium perfringens 81; agar-dilution
[23] = tested on: Klebsiella pneumoniae; assay: MIC aerobic bacteria, standard agar-dilution assay; type: cell-based; conditions: Klebsiella pneumoniae X26, 24 hours
[24] = tested on: Eubacterium aerofaciens; assay: MIC anaerobic bacteria, agar-dilution; type: cell-based; conditions: Eubacterium aerofaciens 1235
[25] = tested on: pseudorabies; type: cell-based
[26] = Electrometric titration (pKa); type: physicochemical; conditions: electrometric titration in 66% dimethylformamide in water; stated as possible
Source text: Antibiotic A41030 factor A is a white, crystalline solid.

[27] = tested on: Staphylococcus aureus; assay: MIC aerobic bacteria, standard agar-dilution assay; type: cell-based; conditions: Staphylococcus aureus S13E; agar-dilution, 24 hours
[28] = tested on: S. pyogenes; assay: In vivo oral activity against S. pyogenes in mice
[29] = tested on: Propionibacterium acnes; assay: MIC against Propionibacterium acnes strains, 24-hour agar-dilution; type: cell-based
Source text: Antibiotic A41030 factors A, B and C have been tested and found to be active against a genus of anaerobic bacteria identified as Propionibacterium acnes.

[30] = mice
[31] = Streptococcus sp. Group D 9960, 24 hours
[32] = Streptococcus sp. Group D X66, 24 hours
[33] = Staphylococcus epidermidis EPI2, 24 hours

A41030 factor G
MIC [1]: 64 µg/mL | MIC [2]: 32 µg/mL | MIC [3]: 2 µg/mL | MIC ([4]; Haemophilus influenzae 76, 24 hours): 32 µg/mL | MIC ([4]; Haemophilus influenzae C.L., 24 hours): 32 µg/mL | MIC [5]: ≤ 0.5 µg/mL | MIC [6]: 64 µg/mL | MIC [7]: 2 µg/mL | MIC [8]: 1.0 µg/mL | MIC [9]: 2 µg/mL | MIC [10]: 2 µg/mL | MIC [11, 31]: 4 µg/mL | MIC [11, 32]: 4 µg/mL | MIC ([12]; Staphylococcus epidermidis EPI1, 24 hours): 0.5 µg/mL | MIC [12, 33]: 0.5 µg/mL | MIC ([13]; Clostridium difficile 78): 1.0 µg/mL | MIC ([13]; Clostridium difficile 107B): 1.0 µg/mL | MIC ([13]; Clostridium difficile 111F): 1.0 µg/mL | MIC ([13]; Clostridium difficile 1153): 1.0 µg/mL | MIC ([13]; Clostridium difficile 2634): 1.0 µg/mL | MIC ([13]; Clostridium difficile 3424-5B): 1.0 µg/mL | MIC ([13]; Clostridium difficile 3816): 1.0 µg/mL | MIC ([13]; Clostridium difficile 3950D): 1.0 µg/mL | MIC ([13]; Clostridium difficile 6890): 1.0 µg/mL | MIC ([13]; Clostridium difficile 8484): 1.0 µg/mL | MIC ([13]; Clostridium difficile A-194): 1.0 µg/mL | MIC ([13]; Clostridium difficile A-195): 1.0 µg/mL | MIC ([13]; Clostridium difficile A-196): 1.0 µg/mL | MIC ([13]; Clostridium difficile A-279): 1.0 µg/mL | MIC ([13]; Clostridium difficile A-280): 1.0 µg/mL | MIC ([13]; Clostridium difficile A-281): 1.0 µg/mL | MIC ([13]; Clostridium difficile WAL-2112): 1.0 µg/mL | MIC ([13]; Clostridium difficile WAL-3657): 1.0 µg/mL | MIC ([13]; Clostridium difficile WAL-4268): 1.0 µg/mL | solubility (solvents) [14]: soluble in the same solvents as is factor A | MIC ([15]; Bacteroides fragilis 111): 32 µg/mL | MIC ([15]; Bacteroides fragilis 1877): 32 µg/mL | MIC ([15]; Bacteroides fragilis 1936B): 64 µg/mL | MIC [16]: 2 µg/mL | MIC [17]: 2 µg/mL | MIC [18]: 2 µg/mL | MIC [19]: 64 µg/mL | MIC [20]: 2 µg/mL | MIC [21]: 1.0 µg/mL | MIC [22]: 2 µg/mL | MIC [23]: 64 µg/mL | MIC [24]: 2 µg/mL

NC1C(=O)NC2Cc3ccc(c(Cl)c3)Oc3cc4cc(c3O)Oc3ccc(cc3Cl)C(O)C3NC(=O)C(NC(=O)C4NC(=O)C(NC2=O)c2cc(O)cc(c2)Oc2cc1ccc2O)c1cc(Cl)c(O)c(c1)-c1c(O)cc(O)cc1C(C(=O)O)NC3=O (centres unmarked) [factor A, A41030 factor A]
MIC [1]: 32 µg/mL (≈ 25.9 µM) | MIC [2]: 64 µg/mL (≈ 51.9 µM) | MIC [3]: ≤ 0.25 µg/mL | MIC ([4]; Haemophilus influenzae 251, 24 hours): 2 µg/mL (≈ 1.62 µM) | MIC ([4]; Haemophilus influenzae Brun, 24 hours): 8 µg/mL (≈ 6.49 µM) | MIC [5]: ≤ 0.25 µg/mL | MIC [6]: 64 µg/mL (≈ 51.9 µM) | concentration at which activity in vitro was shown [25]: 20 µg/mL | MIC [7]: 0.5 µg/mL (≈ 0.405 µM) | possibly additional pKa's [26]: > 10.5 | MIC [8]: ≤ 0.25 µg/mL | MIC [9]: 2 µg/mL (≈ 1.62 µM) | MIC [10]: 1.0 µg/mL (≈ 0.811 µM) | MIC [27]: 0.25 µg/mL (≈ 0.203 µM) | MIC [11, 31]: 2 µg/mL (≈ 1.62 µM) | MIC [11, 32]: 1 µg/mL (≈ 0.811 µM) | MIC [12, 33]: 1 µg/mL (≈ 0.811 µM) | MIC ([13]; Clostridium difficile 78): 1.0 µg/mL (≈ 0.811 µM) | MIC ([13]; Clostridium difficile 107B): 1.0 µg/mL (≈ 0.811 µM) | MIC ([13]; Clostridium difficile 111F): 1.0 µg/mL (≈ 0.811 µM) | MIC ([13]; Clostridium difficile 1153): 1.0 µg/mL (≈ 0.811 µM) | MIC ([13]; Clostridium difficile 2634): 1.0 µg/mL (≈ 0.811 µM) | MIC ([13]; Clostridium difficile 3424-5B): 1.0 µg/mL (≈ 0.811 µM) | MIC ([13]; Clostridium difficile 3816): 1.0 µg/mL (≈ 0.811 µM) | MIC ([13]; Clostridium difficile 3950D): 1.0 µg/mL (≈ 0.811 µM) | MIC ([13]; Clostridium difficile 6890): 1.0 µg/mL (≈ 0.811 µM) | MIC ([13]; Clostridium difficile 8484): 1.0 µg/mL (≈ 0.811 µM) | MIC ([13]; Clostridium difficile A-194): 1.0 µg/mL (≈ 0.811 µM) | MIC ([13]; Clostridium difficile A-195): 1.0 µg/mL (≈ 0.811 µM) | MIC ([13]; Clostridium difficile A-196): 1.0 µg/mL (≈ 0.811 µM) | MIC ([13]; Clostridium difficile A-279): 1.0 µg/mL (≈ 0.811 µM) | MIC ([13]; Clostridium difficile A-280): 1.0 µg/mL (≈ 0.811 µM) | MIC ([13]; Clostridium difficile A-281): 1.0 µg/mL (≈ 0.811 µM) | MIC ([13]; Clostridium difficile WAL-2112): 1.0 µg/mL (≈ 0.811 µM) | MIC ([13]; Clostridium difficile WAL-3657): 1.0 µg/mL (≈ 0.811 µM) | MIC ([13]; Clostridium difficile WAL-4268): 1.0 µg/mL (≈ 0.811 µM) | in vivo oral activity [28]: > 300 mg./kg.×2 | solubility (solvents) [14]: soluble in alcohol-water mixtures, in dimethylsulfoxide, in dimethylformamide, in dimethylsulfoxide-water mixtures, in dimethylformamide-water mixtures, in dilute aqueous acid, and in dilute aqueous base | MIC ([15]; Bacteroides fragilis 1877): 32 µg/mL (≈ 25.9 µM) | MIC ([15]; Bacteroides fragilis 1936B): 64 µg/mL (≈ 51.9 µM) | MIC ([29]; P. acnes strain 104): 0.25 µg/mL (≈ 0.203 µM) | MIC ([29]; P. acnes strain 107): 0.06 µg/mL (≈ 0.0486 µM) | MIC ([29]; P. acnes strain 5170): ≤ 0.03 µg/mL | MIC ([29]; P. acnes strain 5176): ≤ 0.03 µg/mL | MIC ([29]; P. acnes strain 5187): ≤ 0.03 µg/mL | MIC ([29]; P. acnes strain 5197): ≤ 0.03 µg/mL | MIC ([29]; P. acnes strain 5226): 0.5 µg/mL (≈ 0.405 µM) | MIC ([29]; P. acnes strain 5227): ≤ 0.03 µg/mL | MIC ([29]; P. acnes strain 5228): 1.0 µg/mL (≈ 0.811 µM) | MIC ([29]; P. acnes strain 5229): 0.5 µg/mL (≈ 0.405 µM) | MIC ([29]; P. acnes strain 5246): 0.06 µg/mL (≈ 0.0486 µM) | MIC ([29]; P. acnes strain 5292): 0.06 µg/mL (≈ 0.0486 µM) | MIC [16]: 32 µg/mL (≈ 25.9 µM) | MIC [17]: 0.5 µg/mL (≈ 0.405 µM) | MIC [18]: 8 µg/mL (≈ 6.49 µM) | MIC [19]: 4 µg/mL (≈ 3.24 µM) | MIC [20]: 1.0 µg/mL (≈ 0.811 µM) | MIC [22]: 0.5 µg/mL (≈ 0.405 µM) | LD50 [30]: > 300 mg/kg | acute toxicity [30]: > 300 mg/kg
